According to paper PMC8741243 (Journal of Enzyme Inhibition and Medicinal Chemistry, 2022):
pKi: −log10 of the molar value.

molecular target: T1, hCA I (Homo sapiens, UniProt P00915); assay: stopped-flow CO2 hydration; assay type: biochemical; settings: not given
T1 construct: gene CA1; recombinant, obtained in-house as described earlier
T1 sequence (P00915 2-261): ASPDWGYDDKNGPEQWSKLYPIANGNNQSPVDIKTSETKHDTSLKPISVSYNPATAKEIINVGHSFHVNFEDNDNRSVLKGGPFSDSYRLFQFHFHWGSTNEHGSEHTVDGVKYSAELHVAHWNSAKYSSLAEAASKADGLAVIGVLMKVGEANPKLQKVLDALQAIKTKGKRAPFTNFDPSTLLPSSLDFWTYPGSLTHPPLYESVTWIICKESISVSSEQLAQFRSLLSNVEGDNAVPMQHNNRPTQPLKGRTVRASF

O=c1cc(O)c2ccccc2o1 [compound 4, 4] gave a pKi of 3.41.

same assay, conditions: read-out: Ki (μM)^a / hCA I

O=c1ccc2cc(O)ccc2o1 [compound 2, 2] and Cc1cc2ccc(O)cc2oc1=O [compound 10, 10] are within 1.5-fold of each other in Ki: 192 µM for the first, 137 µM for the second.

O=c1oc2ccccc2cc1O [compound 5, 5] and CC(=O)c1cc2ccc(O)cc2oc1=O [compound 14, 14] are within 1.5-fold of each other in Ki: 490 µM for the first, 470 µM for the second.

First: Nc1ccc2c(C(F)(F)F)cc(=O)oc2c1 [compound 7, 7]
Second: O=c1cc(O)c2ccc(O)cc2o1 [compound 12, 12]
The Ki of the first is 5.2-fold higher: 940 µM for the first, 182 µM for the second.

CCN(CC)c1ccc2c(C)cc(=O)oc2c1 [compound 8, 4-methyl-7-diethylamino-coumarin] and CCOC(=O)Cc1cc(=O)oc2cc(O)ccc12 [compound 11, 11] are within 1.5-fold of each other in Ki: 517 µM for the first, 749 µM for the second.

CC(=O)c1c(O)ccc2ccc(=O)oc12 [compound 9, 7-hydroxy-8-acetyl-coumarin] and CCOC(=O)c1cc2ccc(O)cc2oc1=O [compound 13, 13] are within 1.5-fold of each other in Ki: 949 µM for the first, 900 µM for the second.

molecular target: T2, NgCAα (Neisseria gonorrhoeae, UniProt Q50940); assay: stopped-flow CO2 hydration; assay type: biochemical; settings: not given
T2 construct: gene cah; recombinant, obtained in-house as described earlier
T2 sequence (Q50940 27-252): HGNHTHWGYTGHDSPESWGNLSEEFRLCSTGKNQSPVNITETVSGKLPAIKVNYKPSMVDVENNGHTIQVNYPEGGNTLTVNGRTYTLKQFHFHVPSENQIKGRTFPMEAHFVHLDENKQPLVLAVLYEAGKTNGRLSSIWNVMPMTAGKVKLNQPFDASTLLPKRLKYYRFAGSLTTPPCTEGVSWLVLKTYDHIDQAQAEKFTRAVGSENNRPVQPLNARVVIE

With O=c1cc(O)c2ccccc2o1 [compound 4, 4] the pKi was 4.02.

same assay, conditions: read-out: Ki (μM)^a / NgCAα

O=c1ccc2ccccc2o1 [compound 1, simple unsubstituted coumarin 1] and O=c1ccc2cc(O)ccc2o1 [compound 2, 2] are within 1.5-fold of each other in Ki: 81.6 µM for the first, 92.4 µM for the second.

O=c1ccc2ccc(O)cc2o1 [compound 3, 3] and Cc1cc2ccc(O)cc2oc1=O [compound 10, 10] are within 1.5-fold of each other in Ki: 77.1 µM for the first, 68 µM for the second.

Going from O=c1oc2ccccc2cc1O [compound 5, 5] to CC(=O)c1cc2ccc(O)cc2oc1=O [compound 14, 14], the Ki rises from 110 µM to 395 µM (3.6-fold). The first binds more tightly here.

Nc1ccc2c(C(F)(F)F)cc(=O)oc2c1 [compound 7, 7] and O=c1cc(O)c2ccc(O)cc2o1 [compound 12, 12] are within 1.5-fold of each other in Ki: 97.1 µM for the first, 77.6 µM for the second.

First: CCN(CC)c1ccc2c(C)cc(=O)oc2c1 [compound 8, 4-methyl-7-diethylamino-coumarin]
Second: CCOC(=O)Cc1cc(=O)oc2cc(O)ccc12 [compound 11, 11]
The Ki of the first is 16-fold lower: 28.6 µM for the first, 469 µM for the second. The first binds more tightly here.

Compared with CC(=O)c1c(O)ccc2ccc(=O)oc12 [compound 9, 7-hydroxy-8-acetyl-coumarin], CCOC(=O)c1cc2ccc(O)cc2oc1=O [compound 13, 13] is 9.3-fold higher in Ki: 42.5 µM for the first, 395 µM for the second.

molecular target: T3, VchCAα (Vibrio cholerae, UniProt Q9KMP6); assay: stopped-flow CO2 hydration; assay type: biochemical; settings: read-out: Ki (μM)^a / VchCAα; […] h preincubation at […] °C; […] HEPES pH […] NaClO4; prodrug, lactone hydrolysed by CA esterase activity
T3 construct: gene VC_A0274
T3 sequence (Q9KMP6 21-239 limits assumed): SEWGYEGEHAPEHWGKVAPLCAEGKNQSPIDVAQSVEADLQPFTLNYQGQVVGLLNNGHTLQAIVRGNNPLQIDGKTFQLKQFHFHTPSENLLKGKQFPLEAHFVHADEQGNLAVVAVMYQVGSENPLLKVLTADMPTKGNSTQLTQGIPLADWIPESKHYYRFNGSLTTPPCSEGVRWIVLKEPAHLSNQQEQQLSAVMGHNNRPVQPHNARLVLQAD

O=c1ccc2ccccc2o1 [compound 1, simple unsubstituted coumarin 1] and O=c1ccc2cc(O)ccc2o1 [compound 2, 2] are within 1.5-fold of each other in Ki: 94.7 µM for the first, 77.5 µM for the second.

O=c1ccc2ccc(O)cc2o1 [compound 3, 3] and Cc1cc2ccc(O)cc2oc1=O [compound 10, 10] are within 1.5-fold of each other in Ki: 68.5 µM for the first, 66.8 µM for the second.

O=c1cc(O)c2ccccc2o1 [compound 4, 4] and O=c1cc(O)c2ccc(O)cc2o1 [compound 12, 12] are within 1.5-fold of each other in Ki: 92.2 µM for the first, 66 µM for the second.

O=c1oc2ccccc2cc1O [compound 5, 5] and CC(=O)c1cc2ccc(O)cc2oc1=O [compound 14, 14] are within 1.5-fold of each other in Ki: 290 µM for the first, 303 µM for the second.

Compared with Nc1ccc2c(C(F)(F)F)cc(=O)oc2c1 [compound 7, 7], CCOC(=O)Cc1cc(=O)oc2cc(O)ccc12 [compound 11, 11] is 4.6-fold higher in Ki: 95 µM for the first, 439 µM for the second. The first binds more tightly here.

Going from CCN(CC)c1ccc2c(C)cc(=O)oc2c1 [compound 8, 4-methyl-7-diethylamino-coumarin] to CCOC(=O)c1cc2ccc(O)cc2oc1=O [compound 13, 13], the Ki rises from 53.9 µM to 432 µM (8-fold).

With CC(=O)c1c(O)ccc2ccc(=O)oc12 [compound 9, 7-hydroxy-8-acetyl-coumarin] the Ki was 39.8 µM.

molecular target: T4, hCA II (Homo sapiens, UniProt P00918); assay: stopped-flow CO2 hydration; assay type: biochemical; settings: not given
T4 construct: gene CA2; recombinant, obtained in-house as described earlier

For O=c1cc(O)c2ccccc2o1 [compound 4, 4], the pKi was 3.29.

same assay, conditions: read-out: Ki (μM)^a / hCA II

First: O=c1ccc2cc(O)ccc2o1 [compound 2, 2]
Second: Cc1cc2ccc(O)cc2oc1=O [compound 10, 10]
The Ki of the first is 2.3-fold higher: 683 µM for the first, 297 µM for the second.

O=c1oc2ccccc2cc1O [compound 5, 5] and CC(=O)c1cc2ccc(O)cc2oc1=O [compound 14, 14] are within 1.5-fold of each other in Ki: 625 µM for the first, 786 µM for the second.

Nc1ccc2c(C(F)(F)F)cc(=O)oc2c1 [compound 7, 7] and O=c1cc(O)c2ccc(O)cc2o1 [compound 12, 12] are within 1.5-fold of each other in Ki: 733 µM for the first, 758 µM for the second.

Compared with CCN(CC)c1ccc2c(C)cc(=O)oc2c1 [compound 8, 4-methyl-7-diethylamino-coumarin], CCOC(=O)Cc1cc(=O)oc2cc(O)ccc12 [compound 11, 11] is 1.6-fold higher in Ki: 559 µM for the first, 876 µM for the second.

CC(=O)c1c(O)ccc2ccc(=O)oc12 [compound 9, 7-hydroxy-8-acetyl-coumarin] and CCOC(=O)c1cc2ccc(O)cc2oc1=O [compound 13, 13] are within 1.5-fold of each other in Ki: 646 µM for the first, 961 µM for the second.
